One data set deals with Hepatitis B virus. The note with it: literature; cited from earlier work.
Data set [1] has as its system woodchuck hepatitis virus (WHV). The data set is described as follows: Woodchuck model, N-nonyl-DNJ monotherapy, BID oral dosing, total HBV DNA and IPDNA. The class given is in vivo. How it is done:
Therefore, five groups of four animals each (all groups had both sexes, all but the control had two of each sex) were assigned to 0, 12.5, 25, 50, and 100 mg/kg/day with BID oral dosing. These were lab-reared wild animals. All animals were infected with woodchuck hepatitis virus (WHV) as neonates, and had been tested positive on serological tests for WHV surface antigen. Blood samples were drawn one week prior to dosing (−1 week), immediately before dosing (0 weeks), weekly during dosing (1, 2, 3, and 4 weeks), and after the end of dosing (5, 6, 8, and 10 weeks).
(§1) There are two measures of drug efficacy: reduction in total HBV DNA (measured by quantitative PCR), and reduction in HBV DNA from capsids with intact surface glycoproteins, which is the active form of the virus (measured by an ELISA-like immune precipitation assay followed by quantitative PCR).
Before models are fitted to the data, a log transform was applied because: 1) the variation in IPDNA increases with increasing IPDNA values; the log transformation gives values with a nearly constant variation, and 2) it is expected that drug effects will appear as a constant multiplier of the IPDNA level. Because there are zero values of IPDNA, a small value (about ½ of the smallest non-zero value) was added to all values before the log transform.
Two approaches were used to model the changes in slope to week with dose of N-nonyl-DNJ: a linear modeling approach and a nonlinear model. Both approaches assume that the (linear) rate of change of the Log(IPDNA) measure over the dosing period is the “right” measure to reflect the effect of the drug on the virus. Both approaches are fit in stages, and the first stage is common to both approaches. First, a simple straight line regression model is fit using weeks 0-4 to predict log(IPDNA+10) separately for each animal by run combination. In the second stage, the response variable is the slope fitted in the first stage.
For the linear approach, a model is fit with slope to week as the response where run is considered a block, dose has a significant effect (almost all of this effect is due to a slope to dose), and the relevant error for testing the effect of dose is the variation among animals treated alike (after the adjustment for the runs as blocks). This is similar to using the calibration data within each run to first adjust each run's data to a common virus DNA concentration; the difference is that here the data from the woodchucks are used for the run adjustment rather than only the calibration data.
For the nonlinear approach, a four parameter logistic model is fit with the slope to week as the response and the dose as the predictor. Again, run is considered a block, but because no run has all weeks, it is not possible to fully reflect the blocking in the nonlinear approach. […] The average maximum slope observed was 2.71 additional Log(IPDNA μg/mL)/week, or an increase of about 150%/week, the average minimum slope observed with N-nonyl-DNJ is 0.31 fewer Log(IPDNA μg/mL)/week), or about a decrease of about 25%/week. The slopes, the fitted model, the parameter estimates from the-model, and the approximate standard errors for these parameters are all shown in FIG. 3. […] Whether in woodchucks or humans, the effective dose of both the N-alkyl-DNJ and nucleoside or nucleotide antiviral agent administered in combination therewith can be administered in two equal daily subdoses (i.e., B.I.D.).

A further data set has as its system HBV DNA. The data set is described as follows: Cell culture experiments with N-nonyl-DNJ: total HBV DNA and immune precipitated DNA (IPDNA). The class given is cell-based.
Excerpt: as §1

The conditions of data set [2]: in vivo; cited from earlier work.
The conditions of data set [3]: HIV infected patients; cited from earlier work.

The values that follow come from patent US6689759B1, “Methods of Treating hepatitis virus infections with N-substituted-1,5-dideoxy-1,5-imino-d-glucitol compounds in combination therapy” (G. D. Searle & Co., priority 2000, dated 2004).

For the compound `Cc1cn([C@H]2C[C@H](N=[N+]=[N-])[C@@H](CO)O2)c(=O)[nH]c1=O` [zidovudine, 3′-azido-3′-deoxythymidine, reference compound], the “usefulness against Hepatitis B infection” value with Hepatitis B virus is on record as “appears to have little use against the same virus”.

For the compound `CCCCCCCCCN1C[C@H](O)[C@@H](O)[C@H](O)[C@H]1CO` [N-nonyl-DNJ, N-(n-nonyl-)-1,5-dideoxy-1,5-imino-D-glucitol], in data set [1] (additional Log(IPDNA)/week, i.e. an increase, low dose end of the model), the “average maximum slope observed” value is listed as 2.71 Log(IPDNA μg/mL)/week. Moreover, the “average minimum slope observed” value in data set [1] (fewer Log(IPDNA)/week, i.e. a decrease) is recorded as 0.31 Log(IPDNA μg/mL)/week. The EC50 in data set [1] (four parameter logistic model, slope of Log(IPDNA+10) to week versus dose) came to 7.88 mg/kg/BID dose. Also, in data set [1] (in vivo), the “decrease of IPDNA at the average minimum slope” value was “about 25 %/week”. In data set [1] (low dose end of the model), the “increase of IPDNA at the average maximum slope” value is “about 150 %/week”. The “effect on total HBV DNA measurements” value in data set [1] (woodchuck, all dose levels, quantitative PCR) is “no effect”. Also, the “slope of IPDNA over weeks 0-4” value in data set [1] (woodchuck, change in slope statistically significant (p<0.005)) was “generally increasing for low dose animals and decreasing for high dose animals”. The “approximate effective monotherapy dose” value in data set [1] (woodchucks) was “about 16 mg/kg/day”. In addition, in the data set on HBV DNA, the “effect on immune precipitated DNA (IPDNA)” value is reported as “marked effect” and the “effect on total HBV DNA” value was “little or no effect”.

As for `O=c1[nH]c(=O)n([C@@H]2O[C@H](CO)[C@@H](O)[C@@H]2F)cc1I` [fialuridine], the toxicity result in data set [2] is given as “drug-related liver failure leading to death in some patients”.

Turning to `CCCCN1C[C@H](O)[C@@H](O)[C@H](O)[C@H]1CO` [n-butyl-DNJ, N-butyl-1-5-dideoxy-1,5-imino-D-glucitol], in the data set on Hepatitis B virus, the “usefulness against Hepatitis B infection” value was “effective”. Further, the tolerability result in data set [3] is on record as “well tolerated”.
